Where only a bound is given, the exact number is not on record here.

Experiment [1] addresses full-length BTK C481S enzyme (Homo sapiens (Human), UniProt Q06187, C481S). Description: Biochemical kinase assay BTK C481S (IMAP). In outline:
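IC50 values come from IMAP fluorescence polarization after quenching with progressive binding solution. The reaction ran 2 h at room temperature in the dark with 1.2 nM full-length C481S enzyme, 7 μM ATP and 50 nM fluorescein-labelled MBP-derived peptide, following a 1 h dark pre-incubation of compound with enzyme.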

Experiment [2] concerns wt-REC-1 mantle cell lymphoma cells. Put plainly: Cell proliferation assay wt-REC-1 (ATPlite, 72 hours). The class given is cell-based. The following applies: 72 h; read-out: IC50 wt-REC-1. In outline: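 Luminescent viability read over 72 h, start-of-incubation signal recorded separately to separate growth from cell death. Percentage growth referenced to compound-free 0.3% DMSO wells; IC50 from 4-parameter logistic fit.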

The test system of experiment [3] is wt-BTK, BTK C481S, BTK T474I and BTK C481S/T474I expressing 293 cells. Description: Cell based washout, pBTK (Tyr223) Western blot. The following applies: 1000 nM compound 2 hours, washed twice, harvested 0-24 hours; also cell lines expressing mutant BTK. The arrangement: species or system human. The procedure:
In vitro cellular (mutant) BTK inhibition, and inhibitor wash-out Generation of human wt-BTK, BTK C481S, BTK T474I, and BTK C481S/T474I expressing GripTite 293 MSR cells.
GripTite 293 MSR cells (Thermo Fisher, cat. no. R79507), here after referred to as 293 cells, were cultured in DMEM/F-12, GIutaMAX™ supplement medium (Thermo Fisher cat. no. 10565018) supplemented with 1% Penicilline/Streptomycine (Thermo Fisher cat. no. 15140122) 10% fetal bovine serum (Biowest, cat. no. Si181 0-500), 1× MEM Non-Essential Amino Acids (Thermo Fisher cat. no. 11140050) and 50 μg/ml Geneticin (Thermo Fisher cat. no. 10131035). Cells were transfected, with pEF6/V5-HisB (Thermo Fisher cat. no. V96120) expression vectors containing either full-length wildtype-BTK (canonical sequence NM_000061), BTK C481 S, BTK T474I or BTK C481 S/T474I (BaseClear) using Lipofectamine™ 3000 (Invitrogen). Because the stop codon at the end of the coding sequence of BTK has been conserved, the His-tag present in the expression vector is not being used. Immediately after transfection, cells were cultured in medium without Geneticin, and after 24 hours 50 μg/ml geneticin was added. 48 hours after transfection, medium was removed and replaced by medium containing both geneticin (50 μg/ml) and blasticidin (10 μg/ml) S HCl (Thermo Fisher, cat. no. A1113903). The resulting transfectants were cultured under blasticidin selection pressure for 18-35 passages to obtain stable wild-type BTK (wt-BTK), BTK C481S, BTK T474I, and BTK C481 S/T474I expressing cell pools. Stability of the (mutant) BTK expression in the 293 cell pools was confirmed by poly-acrylamide gel electrophoresis followed by Western blotting (FIG. 1A). […] For both experiments 10 μg of protein was separated on 4-12% Bis-Tris polyacrylamide gels.
Wild-type BTK, BTK C481S, BTK T474I or BTK C481 S/T474I expressing 293 cells were lysed in lysis buffer supplemented with protease inhibitors (Merck, cat. no. P8340) and phosphatase inhibitors (Thermo Fisher, cat. no. 78426). The protein concentration was determined with a Pierce BCA protein assay kit (Thermo Fisher, cat. no. 23227). Lysates were diluted to a concentration of 1 μg/μl in NuPage® LDS Sample Buffer (Thermo Fisher, cat. no. NP0008) with 167 mM DTT (Acros Organics, cat. no. 10686841) and denatured for 5 minutes at 95° C. The samples (10 μg protein) were, together with a pre stained protein ladder (Thermo Fisher, cat. no. 26616), separated on 4-12% Bis-Tris polyacrylamide gels (Thermo Fisher, cat. no. NP0324BOX). Separated protein was subsequently transferred, in methanol free transfer buffer (Thermo Fisher, cat. no. 35045), to a nitrocellulose membrane (Thermo Fisher, cat. no. 88018). Blots were first immunologically stained with phospho-BTK (Tyr223) rabbit mAb (Cell Signaling, cat. no. 5082S), and beta-actin rabbit mAb (Cell Signaling, cat. no. 4967S), followed by peroxidase conjugated goat anti-rabbit IgG (Cell Signaling, cat. no. 7074S). Afterwards, antibodies were removed using Western-blot stripping buffer (Thermo Fisher cat. no. 46428) and staining was repeated with a (total-)BTK mouse mAb (Abnova, cat. no. MAB0798), followed by peroxidase conjugated horse anti-mouse IgG (Cell Signaling, cat. no. 7076S). For all blots the colour development was performed with ECL horseradish peroxidase substrate (BioRad, cat. no. 170-5060).
Wild-type BTK, BTK C481S, BTK T474I, and BTK C481 S/T474I expressing 293 cells were growing exponentially when seeded in culture medium, without blasticidin, at a density of 2,000,000 cells/4 ml/well, in 25 cm^2 cell culture flasks (Greiner Bio-one, cat. no. 690175). Flasks were placed in a 37° C. C02-incubator for 16-24 hours after which 1 ml culture medium containing 5000 nM of the compound of Example 46 or Example 201, or Example 184, or Example 204, or Example 45 or (+/−) Loxo-305, or 0.05% DMSO (no compound) was added. 2 hours after addition of the inhibitors (0h) cells are either collected or washed twice with 5 ml culture medium. […]

Sequence of full-length BTK C481S enzyme (Q06187 whole entry C481S): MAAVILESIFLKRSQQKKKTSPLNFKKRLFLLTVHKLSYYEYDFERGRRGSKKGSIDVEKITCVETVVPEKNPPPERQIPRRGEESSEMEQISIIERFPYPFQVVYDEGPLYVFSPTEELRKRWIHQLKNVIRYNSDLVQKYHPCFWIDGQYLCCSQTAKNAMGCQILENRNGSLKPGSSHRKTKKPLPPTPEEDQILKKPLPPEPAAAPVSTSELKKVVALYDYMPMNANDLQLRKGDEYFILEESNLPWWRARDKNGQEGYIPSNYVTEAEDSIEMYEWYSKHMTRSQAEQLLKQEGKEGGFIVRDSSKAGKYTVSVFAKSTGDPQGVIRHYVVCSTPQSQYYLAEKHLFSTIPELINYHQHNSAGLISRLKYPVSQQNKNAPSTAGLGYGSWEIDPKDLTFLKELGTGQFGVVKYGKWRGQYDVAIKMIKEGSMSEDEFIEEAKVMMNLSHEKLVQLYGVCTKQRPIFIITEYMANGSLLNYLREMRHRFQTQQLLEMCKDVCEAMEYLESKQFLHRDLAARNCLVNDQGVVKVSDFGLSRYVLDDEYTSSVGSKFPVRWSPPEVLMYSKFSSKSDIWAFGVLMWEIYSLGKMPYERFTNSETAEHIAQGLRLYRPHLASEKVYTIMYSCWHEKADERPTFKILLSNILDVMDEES

With `N#Cc1ccnc(NC(=O)c2ccc(-c3nc4n5c(cnc(N)c35)/C=C/CCOCCC(=O)N[C@@H]3CC[C@@H]4C3)cc2)c1` [Example 201], the IC50 in experiment [1] is under 5 nM; in experiment [2], under 100 nM. Moreover, the “time for which level of phosphorylated BTK (pBTK (Tyr223)) is prohibited or reduced after wash-out” value in experiment [3] is “at least 6 hours”.
In the case of `C[C@@H]1CC(=O)N[C@@H]2CCC[C@H](C2)n2nc(-c3ccc(C(=O)Nc4cc(C(F)(F)F)ccn4)cc3)c3c(N)ncc(c32)/C=C/CCN1` [Example 45], the IC50 was under 5 nM in experiment [1] and under 100 nM in experiment [2]. Also, the “time for which level of phosphorylated BTK (pBTK (Tyr223)) is prohibited or reduced after wash-out” value in experiment [3] is on record as “at least 6 hours”.
For `N#Cc1ccnc(NC(=O)c2ccc(-c3nc4n5c(cnc(N)c35)/C=C/CCCCCC(=O)N[C@@H]3CC[C@@H]4C3)cc2)c1` [Example 204] the same measures were under 5 nM, under 100 nM and “at least 6 hours”.
`N#Cc1ccnc(NC(=O)c2ccc(-c3nc4n5c(cnc(N)c35)/C=C/CCCCCC(=O)N[C@@H]3CCC[C@@H]4C3)cc2)c1` [Example 184]: the IC50 in experiment [1] was under 5 nM; in experiment [2] it was under 100 nM. The “time for which level of phosphorylated BTK (pBTK (Tyr223)) is prohibited or reduced after wash-out” value in experiment [3] was “at least 6 hours”.
Take `Nc1ncc2c3c1c(-c1ccc(C(=O)Nc4cc(C(F)(F)F)ccn4)cc1)nn3[C@@H]1CCC[C@H](C1)NC(=O)CCOC/C=C/2` [Example 25]: the results for the IC50 in experiment [1] and in experiment [2] were under 5 nM and under 100 nM, respectively. Besides, the “time for which level of phosphorylated BTK (pBTK (Tyr223)) is prohibited or reduced after wash-out” value in experiment [3] is “at least 6 hours”.

The values above are taken from patent US20250074911A1, “MACROCYCLIC BTK INHIBITORS” (Crossfire Oncology Holding B.V., priority 2021, published 2025).
